Data on one compound can be found in patent US20070270471A1, “Compounds Which Potentiate Glutamate Receptor and Uses Thereof in Medicine” (GLAXO GROUP LIMITED, priority 2004, published 2007).

In the assay the target is T1, human GluR2 flip (unedited) AMPA receptor subunit (Homo sapiens, UniProt P42262).
T1 construct: expressed in transfected cells; host or cells: HEK 293 cells, stably expressing or transiently transfected
Kind of assay: Calcium influx fluorescence assay (FLUO4, FLIPR). Format: cell-based. Conditions: HEK 293 cells expressing human GluR2 flip (unedited); potentiation of response to 100 μM glutamate; peak fluorescence. As for the experimental part:
The ability of the compounds of the invention to potentiate glutamate receptor-mediated response were determined a) by using fluorescent calcium-indicator dyes such as FLUO4 and additionally for some compounds, b) by measuring glutamate-evoked current recorded from human GluR2 flip unedited HEK293 cells.
a) Calcium Influx Fluorescence Assay
384 well plates were prepared containing confluent monolayer of HEK 293 cells either stably expressing or transiently transfected with human GluR2 flip (unedited) AMPA receptor subunit. These cells form functional homotetrameric AMPA receptors. […]
The cell plate was then transferred into a fluorescence imaging plate based reader [such as the FLIPR384 (Molecular Devices)]. A baseline fluorescence reading was taken over a 10 to 240 second period, and then 10 μL from each plate containing a compound of the invention made up in standard buffer solution (in a concentration range from 100 μM to 10 μM) was added (to give a final concentration in the range 30 μM to 3 μM). The fluorescence was read over 5 minute period. […] The fluorescence was then read over a 4 minute period. The activities of the compounds of the invention and reference compounds were determined by measuring peak fluorescence after the last addition. The activity was also expressed relative to the fluorescence increase induced by cyclothiazide at their maximum response (i.e. greater than 30 μM).

T1 sequence (P42262 25-883 isoform P42262-2 limits assumed): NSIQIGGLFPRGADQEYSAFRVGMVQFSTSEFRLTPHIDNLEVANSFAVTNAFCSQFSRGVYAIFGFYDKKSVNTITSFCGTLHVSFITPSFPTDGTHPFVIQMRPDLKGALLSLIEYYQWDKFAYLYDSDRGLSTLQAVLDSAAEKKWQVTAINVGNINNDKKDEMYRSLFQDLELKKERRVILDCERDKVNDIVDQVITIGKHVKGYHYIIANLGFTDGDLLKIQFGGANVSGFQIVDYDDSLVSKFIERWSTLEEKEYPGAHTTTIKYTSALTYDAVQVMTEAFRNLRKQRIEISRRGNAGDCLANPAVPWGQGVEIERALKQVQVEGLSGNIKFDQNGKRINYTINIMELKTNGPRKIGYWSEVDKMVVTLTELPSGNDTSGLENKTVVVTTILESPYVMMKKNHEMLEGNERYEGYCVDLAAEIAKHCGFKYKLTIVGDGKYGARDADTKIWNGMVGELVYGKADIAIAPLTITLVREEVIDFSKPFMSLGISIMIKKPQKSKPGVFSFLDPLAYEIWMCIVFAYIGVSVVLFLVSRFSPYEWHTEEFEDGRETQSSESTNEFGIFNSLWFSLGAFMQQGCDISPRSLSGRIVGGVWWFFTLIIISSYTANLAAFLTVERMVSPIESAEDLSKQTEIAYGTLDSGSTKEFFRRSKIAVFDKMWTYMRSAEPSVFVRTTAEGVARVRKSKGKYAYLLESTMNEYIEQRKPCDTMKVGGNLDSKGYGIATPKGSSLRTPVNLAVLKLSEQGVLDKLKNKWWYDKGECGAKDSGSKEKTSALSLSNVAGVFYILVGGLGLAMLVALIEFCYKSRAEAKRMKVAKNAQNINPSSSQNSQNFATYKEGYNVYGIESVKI

In general, EC50 refers to the concentration at which the effect is half-maximal. On to `CC(C)S(=O)(=O)N[C@@H]1CN(C)C[C@H]1c1ccc(-c2cccc(N(C)S(C)(=O)=O)c2)cc1` (relative stereo) [Example 19, N-(trans-1-methyl-4-{3′-[methyl(methylsulfonyl)amino]-4-biphenylyl}-3-pyrrolidinyl)-2-propanesulfonamide], for which the concentration for a half-maximal effect (EC50) was 1580 nM.
